Data taken from ChEMBL document CHEMBL1201862, “PubChem BioAssay data set” (2004).
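Test compounds were applied to cells in 96-well plates for 48 hours at 5 doses. GI50 marks 50% less growth.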 Activity calls are given as the source filed them. Cut-off read from the data, not from the text of the source: active = GI50 up to about 1.1 µM and inactive = higher.

Experiments:
Experiment in all cases: NCI tumour cell line growth inhibition, 48 h
[1] = test system: MOLT-4
[2] = test system: DU-145
[3] = test system: SW-620
[4] = test system: DLD-1
[5] = test system: SR
[6] = test system: DMS-273
[7] = test system: M14
[8] = test system: RPMI-8226
[9] = test system: BT-549
[10] = test system: SK-MEL-5
[11] = test system: SK-MEL-2
[12] = test system: NCI/ADR-RES
[13] = test system: NCI-H23
[14] = test system: HCT-116
[15] = test system: Hs-578T
[16] = test system: CAKI-1
[17] = test system: SN12C
[18] = test system: SF-268
[19] = test system: OVCAR-8
[20] = test system: 786-0
[21] = test system: MCF7
[22] = test system: HT-29
[23] = test system: K562
[24] = test system: DMS-114
[25] = test system: SK-OV-3
[26] = test system: SK-MEL-28
[27] = test system: SNB-75
[28] = test system: UACC-257
[29] = test system: COLO 205
[30] = test system: M19-MEL
[31] = test system: KM12
[32] = test system: UACC-62
[33] = test system: NCI-H460
[34] = test system: OVCAR-3
[35] = test system: OVCAR-4
[36] = test system: HCC 2998
[37] = test system: NCI-H522
[38] = test system: SNB-78
[39] = test system: UO-31
[40] = test system: ACHN
[41] = test system: HOP-62
[42] = test system: LXFL 529
[43] = test system: RXF 393
[44] = test system: SNB-19
[45] = test system: CCRF-CEM
[46] = test system: SF-295
[47] = test system: HOP-92
[48] = test system: IGROV-1
[49] = test system: Malme-3M
[50] = test system: SF-539
[51] = test system: HL-60
[52] = test system: U-251
[53] = test system: NCI-H226
[54] = test system: PC-3
[55] = test system: OVCAR-5
[56] = test system: MDA-MB-231
[57] = test system: MDA-N
[58] = test system: TK-10
[59] = test system: HCT-15
[60] = test system: MDA-MB-435
[61] = test system: A549
[62] = test system: T47D
[63] = test system: EKVX
[64] = test system: LOX IMVI
[65] = test system: A498

Question: Which results are given for COc1ccc2c(c1)-c1nn(CCCN(C)C)c3ccc([N+](=O)[O-])c(c13)N2?
Answer: GI50 [1]: 0.106 µM (active); GI50 [2]: 0.254 µM (active); GI50 [3]: 0.0719 µM (active); GI50 [4]: 181 nM (active); GI50 [5]: 0.13 µM (active); GI50 [6]: 161 nM (active); GI50 [7]: 0.361 µM (active); GI50 [8]: 0.201 µM (active); GI50 [9]: 1.23 µM (inactive); GI50 [10]: 0.33 µM (active); GI50 [11]: 0.676 µM (active); GI50 [12]: 0.124 µM (active); GI50 [13]: 0.398 µM (active); GI50 [14]: 0.0787 µM (active); GI50 [15]: 0.48 µM (active); GI50 [16]: 0.261 µM (active); GI50 [17]: 0.103 µM (active); GI50 [18]: 0.207 µM (active); GI50 [19]: 0.121 µM (active); GI50 [20]: 0.0991 µM (active); GI50 [21]: 0.239 µM (active); GI50 [22]: 0.102 µM (active)

Question: Which results are given for CCN(CC)CC/N=C\c1c(O)c(O)c(C(C)C)c2cc(C)c(-c3c(C)cc4c(C(C)C)c(O)c(O)c(/C=N/CCN(CC)CC)c4c3O)c(O)c12?
Answer: GI50 [1]: 1.29 µM (inactive); GI50 [23]: 1.02 µM (active); GI50 [24]: 1.58 µM (inactive); GI50 [25]: 3.46 µM (inactive); GI50 [26]: 3.17 µM (inactive); GI50 [27]: 5.31 µM (inactive); GI50 [7]: 1.83 µM (inactive); GI50 [8]: 1.53 µM (inactive); GI50 [28]: 5.53 µM (inactive); GI50 [11]: 2.3 µM (inactive); GI50 [29]: 3.54 µM (inactive); GI50 [30]: 3.45 µM (inactive); GI50 [31]: 1.1 µM (active); GI50 [13]: 2.95 µM (inactive); GI50 [14]: 1.82 µM (inactive); GI50 [32]: 2.55 µM (inactive); GI50 [33]: 2.32 µM (inactive); GI50 [34]: 1.59 µM (inactive); GI50 [35]: 0.959 µM (active); GI50 [18]: 4 µM (inactive); GI50 [36]: 2.11 µM (inactive); GI50 [37]: 0.959 µM (active); GI50 [38]: 716 nM (active); GI50 [39]: 2.93 µM (inactive); GI50 [40]: 2.66 µM (inactive); GI50 [41]: 2.65 µM (inactive); GI50 [42]: 1.46 µM (inactive); GI50 [43]: 1.33 µM (inactive); GI50 [44]: 1.65 µM (inactive); GI50 [45]: 0.354 µM (active); GI50 [46]: 1.58 µM (inactive); GI50 [47]: 2.38 µM (inactive); GI50 [48]: 2.74 µM (inactive); GI50 [49]: 4.16 µM (inactive); GI50 [50]: 2.2 µM (inactive); GI50 [22]: 1.77 µM (inactive)

Question: Which GI50 [51] does the source give for CC(=O)O[C@H]1CC[C@@]2(C)C(=CC[C@H]3[C@@H]4C[C@H](N5CCCC5)[C@H](OC(C)=O)[C@@]4(C)CC[C@@H]32)C1 here?
Answer: > 45.7 µM (inactive)

Question: And the GI50 [1]?
Answer: > 81.5 µM (inactive)

Question: And the GI50 [52]?
Answer: > 100 µM (inactive)

Question: What about the GI50 [23] of the same compound?
Answer: 33.1 µM (inactive)

Question: What about the GI50 [2] of the same compound?
Answer: > 100 µM (inactive)

Question: What about the GI50 [25] of the same compound?
Answer: > 100 µM (inactive)

Question: What about the GI50 [26] of the same compound?
Answer: 39.8 µM (inactive)

Question: What about the GI50 [3] of the same compound?
Answer: > 100 µM (inactive)

Question: And the GI50 [53]?
Answer: > 100 µM (inactive)

Question: And the GI50 [27]?
Answer: > 100 µM (inactive)

Question: And the GI50 [5]?
Answer: > 100 µM (inactive)

Question: And the GI50 [7]?
Answer: 18.2 µM (inactive)

Question: What about the GI50 [8] of the same compound?
Answer: > 60.1 µM (inactive)

Question: What about the GI50 [54] of the same compound?
Answer: > 100 µM (inactive)

Question: What about the GI50 [28] of the same compound?
Answer: 38 µM (inactive)

Question: And the GI50 [9]?
Answer: > 100 µM (inactive)

Question: And the GI50 [10]?
Answer: 23 µM (inactive)

Question: And the GI50 [11]?
Answer: > 100 µM (inactive)

Question: And the GI50 [55]?
Answer: > 100 µM (inactive)

Question: What about the GI50 [56] of the same compound?
Answer: > 100 µM (inactive)

Question: What about the GI50 [29] of the same compound?
Answer: > 100 µM (inactive)

Question: And the GI50 [12]?
Answer: > 100 µM (inactive)

Question: What about the GI50 [57] of the same compound?
Answer: > 51.1 µM (inactive)

Question: What about the GI50 [31] of the same compound?
Answer: > 100 µM (inactive)

Question: And the GI50 [58]?
Answer: > 100 µM (inactive)

Question: And the GI50 [13]?
Answer: > 100 µM (inactive)

Question: And the GI50 [14]?
Answer: > 56.5 µM (inactive)

Question: What about the GI50 [32] of the same compound?
Answer: > 56.1 µM (inactive)

Question: And the GI50 [33]?
Answer: > 100 µM (inactive)

Question: What about the GI50 [15] of the same compound?
Answer: > 100 µM (inactive)

Question: And the GI50 [34]?
Answer: > 86.3 µM (inactive)

Question: And the GI50 [16]?
Answer: > 100 µM (inactive)

Question: What about the GI50 [17] of the same compound?
Answer: > 100 µM (inactive)

Question: And the GI50 [35]?
Answer: > 100 µM (inactive)

Question: What about the GI50 [18] of the same compound?
Answer: > 100 µM (inactive)

Question: And the GI50 [36]?
Answer: > 93.3 µM (inactive)

Question: What about the GI50 [59] of the same compound?
Answer: > 100 µM

Question: And the GI50 [37]?
Answer: > 100 µM (inactive)

Question: And the GI50 [39]?
Answer: > 100 µM (inactive)

Question: And the GI50 [40]?
Answer: > 100 µM (inactive)

Question: What about the GI50 [41] of the same compound?
Answer: > 100 µM (inactive)

Question: And the GI50 [60]?
Answer: 32 µM (inactive)

Question: What about the GI50 [61] of the same compound?
Answer: > 100 µM (inactive)

Question: And the GI50 [43]?
Answer: > 100 µM (inactive)

Question: And the GI50 [44]?
Answer: > 100 µM (inactive)

Question: And the GI50 [45]?
Answer: > 67.8 µM (inactive)

Question: What about the GI50 [62] of the same compound?
Answer: > 100 µM (inactive)

Question: What about the GI50 [46] of the same compound?
Answer: > 100 µM (inactive)

Question: What about the GI50 [19] of the same compound?
Answer: > 100 µM (inactive)

Question: What about the GI50 [63] of the same compound?
Answer: > 100 µM (inactive)

Question: And the GI50 [47]?
Answer: > 100 µM (inactive)

Question: What about the GI50 [20] of the same compound?
Answer: > 100 µM (inactive)

Question: And the GI50 [64]?
Answer: 49.2 µM (inactive)

Question: What about the GI50 [21] of the same compound?
Answer: > 100 µM (inactive)

Question: What about the GI50 [48] of the same compound?
Answer: > 100 µM (inactive)

Question: What about the GI50 [49] of the same compound?
Answer: 33.7 µM (inactive)

Question: What about the GI50 [50] of the same compound?
Answer: 29.3 µM (inactive)

Question: What about the GI50 [65] of the same compound?
Answer: > 100 µM (inactive)

Question: What about the GI50 [22] of the same compound?
Answer: 21.7 µM (inactive)
